Test results published in US11744907B2, “Predicting peptide receptor radiotherapy using a gene expression assay” (Liquid Biopsy Research LLC, priority 2017, dated 2023).

Columns and labels:
midgut NETs = midgut NETs progressive on standard octreotide LAR treatment; cited from earlier work
[1] = test system: neuroendocrine tumor (NET); assay: Progression-free survival of PPQ-negative subjects after PRRT or PRRT plus chemotherapy; type: in vivo, human; details: PPQ predicted non responders; standard 4 cycle PRRT
From the text: Clinical outcomes of patients that were identified by the PPQ to be a predicted non-responder to PRRT therapy were further analyzed. […] Thus, the PPQ can be used to identify patients that require additional agents (e.g. immune-related treatments or chemotherapy) to be used with PRRT and thereby optimize outcomes.

## C[C@@H](O)[C@H](NC(=O)[C@@H]1CSSC[C@H](NC(=O)[C@@H](Cc2ccccc2)NC(=O)CN2CCN(CC(=O)[O-])CCN(CC(=O)[O-])CCN(CC(=O)[O-])CC2)C(=O)N[C@@H](Cc2ccc(O)cc2)C(=O)N[C@H](Cc2c[nH]c3ccccc23)C(=O)N[C@@H](CCCCN)C(=O)N[C@@H]([C@@H](C)O)C(=O)N1)C(=O)O.[177Lu+3] [Lutathera, ^177Lu-DOTA-Tyr^3-Thr^8-octreotide]
Midgut NETs
  efficacy versus high-dose octreotide: more effective than high-dose octreotide somatostatin analogs
[1]
  median PFS: 9 months
